Data on 1 compound can be found in patent US10702512B2, “Treatment of debilitating fatigue” (A. CARLSSON RESEARCH AB, priority 2015, dated 2020).

Data set [1] can be described thus: OSU6162 concentration in blood plasma. The format is in vivo, human. Here is the method:
Next, the concentration of OSU6162 in blood plasma was measured and analyzed for correlations with time and changes in FF, MFS and BDI score.
Plasma concentrations of OSU6162 were measured in 30 patients who received placebo and in 31 patients who received OSU6162. The blood sample was drawn in the morning after the tablet was taken—the time of the tablet intake was noted and reported to the clinic by the patient. The blood sample was taken at minimum 65 and at maximum 180 minutes after tablet intake. The mean time was 123 minutes and the standard deviation 33 minutes.
In order to analyze the relationship between the treatment outcome and the concentration of OSU6162 in blood plasma, OSU6162 concentrations in patients measured after week 2 were plotted against change in FF, MFS and BDI score (FIGS. 6, 7 and 8).

Data set [2] has as its system ME/CFS patients. Put plainly: Barrow Neurological Institute Screen for Higher Cerebral Functions (BNIS). In kind it is in vivo, human. Here is the method:
Next, patients were evaluated using a neuropsychological test. 61 patients were included in a neuropsychological examination. All subjects were tested once in connection with the randomization with the BNIS neuropsychological screening test. 20-30 minutes was required for this test. With the purpose of measuring the cognitive effects of the OSU6162 treatment six more tests were distributed at a first occasion before the initiation of treatment and at a second occasion after the treatment was completed. These tests required 20 minutes each. All tests were performed by a neuropsychologist. Barrow Neurological Institute Screen for Higher Cerebral Functions (BNIS) is a screening test constructed to quantitatively and qualitatively reflect the outcome of a range of higher cerebral functions. The three initial items are pre-screening items where arousal level, basic communication skills and level of cooperation are assessed (a maximum score of 9) to decide whether the status of the patients allows further testing. At least two points in each item are required. The BNIS contains the following domains: speech and language (maximum score 15), orientation (maximum score 3), attention/concentration (maximum score 3), visual and visual spatial problem solving (maximum score 8), learning and memory (maximum score 7), affect (maximum score 4) and awareness vs. performance (maximum score 1). The test provides a total score=50 of overall cognitive functioning and subscale scores. A score less than 47 indicates brain dysfunction.

Where [3] appears, read: OSU6162 group, tested once in connection with randomization.

As for `CCCN1CCC[C@@H](c2cccc(S(C)(=O)=O)c2)C1.Cl` [OSU6162, (3S)-3-[3-(methylsulfonyl)-phenyl]-1-propylpiperidine hydrochloride], the “correlation between plasma concentration and time between tablet intake and blood sampling” value in data set [1] (Spearman rank correlation, sampling 65-180 minutes after tablet intake) was “No significant correlation”. Further, the “therapeutic optimum plasma concentration” value in data set [1] (plasma after week 2 plotted against change in FF, MFS and BDI score, above 0.7 μM no further improvement) was 0.3 to 0.7 µM. For the same compound, in data set [2] (setting [3]), the “BNIS total score, max” value was 50; the “BNIS total score, mean” value was 45.2; the “BNIS total score, min” value is on record as 33. Moreover, the “BNIS difference between OSU6162 and placebo groups” value in data set [2] (in vivo) was “No significant difference”.
